Results as given in the NIST ThermoML archive (doi:10.1021/je060271a).
Several values for one entry are separate records, joined by “and”; a condition that tells them apart may be missing. Equal entries are not always repeated.

Settings: 303.16 K, Liquid, Vibrating tube method

CCCCCC(=O)OCC(COC(=O)CCCCC)(COC(=O)CCCCC)COC(=O)CCCCC [pentaerythritol tetrahexanoate]
Settings | mass density
291.9 kPa | 988.7 kg/m3
292.2 kPa | 988.5 kg/m3
292.6 kPa | 988.6 kg/m3
292.9 kPa | 988.6 kg/m3
297.1 kPa | 988.4 kg/m3
297.8 kPa | 988.5 kg/m3
298.1 kPa | 988.6 kg/m3
298.5 kPa | 988.5 kg/m3
298.7 kPa | 988.6 kg/m3
299.2 kPa | 988.5 kg/m3
299.3 kPa | 988.6 kg/m3
299.9 kPa | 988.4 kg/m3 and 988.6 kg/m3
300.4 kPa | 988.6 kg/m3
300.7 kPa | 988.6 kg/m3
301.1 kPa | 988.6 kg/m3
301.2 kPa | 988.6 kg/m3
301.6 kPa | 988.6 kg/m3
302 kPa | 988.5 kg/m3
302.1 kPa | 988.5 kg/m3
302.7 kPa | 988.6 kg/m3
303 kPa | 988.5 kg/m3
303.2 kPa | 988.5 kg/m3
303.7 kPa | 988.5 kg/m3
303.9 kPa | 988.6 kg/m3
304.2 kPa | 988.5 kg/m3
304.5 kPa | 988.6 kg/m3
304.7 kPa | 988.6 kg/m3
305.1 kPa | 988.5 kg/m3
306.3 kPa | 988.5 kg/m3
306.6 kPa | 988.6 kg/m3
307 kPa | 988.6 kg/m3
307.3 kPa | 988.6 kg/m3
307.8 kPa | 988.5 kg/m3
307.9 kPa | 988.5 kg/m3
308.2 kPa | 988.5 kg/m3
308.7 kPa | 988.6 kg/m3
309.1 kPa | 988.5 kg/m3
309.4 kPa | 988.6 kg/m3
309.8 kPa | 988.5 kg/m3
310.1 kPa | 988.5 kg/m3
310.8 kPa | 988.5 kg/m3
311 kPa | 988.5 kg/m3
311.3 kPa | 988.6 kg/m3
311.7 kPa | 988.6 kg/m3
311.9 kPa | 988.5 kg/m3
312.2 kPa | 988.6 kg/m3
312.5 kPa | 988.6 kg/m3
313.6 kPa | 988.6 kg/m3
314.6 kPa | 988.6 kg/m3
315.8 kPa | 988.6 kg/m3
316.7 kPa | 988.5 kg/m3
317.1 kPa | 988.4 kg/m3
317.2 kPa | 988.6 kg/m3
317.4 kPa | 988.5 kg/m3
317.9 kPa | 988.5 kg/m3
318.1 kPa | 988.6 kg/m3
318.5 kPa | 988.6 kg/m3
318.6 kPa | 988.6 kg/m3
318.8 kPa | 988.5 kg/m3
319 kPa | 988.5 kg/m3
319.3 kPa | 988.5 kg/m3
319.5 kPa | 988.5 kg/m3
319.8 kPa | 988.5 kg/m3
320.4 kPa | 988.5 kg/m3
320.9 kPa | 988.5 kg/m3
321.2 kPa | 988.5 kg/m3
321.9 kPa | 988.6 kg/m3
322.3 kPa | 988.6 kg/m3
324.7 kPa | 988.5 kg/m3
325.6 kPa | 988.6 kg/m3
326.1 kPa | 988.6 kg/m3
326.6 kPa | 988.4 kg/m3 and 988.6 kg/m3
327 kPa | 988.6 kg/m3
327.1 kPa | 988.6 kg/m3
327.3 kPa | 988.6 kg/m3
327.7 kPa | 988.6 kg/m3
328.4 kPa | 988.5 kg/m3
328.9 kPa | 988.6 kg/m3
329.1 kPa | 988.6 kg/m3
333.2 kPa | 988.6 kg/m3
333.9 kPa | 988.6 kg/m3
339.3 kPa | 988.7 kg/m3
339.7 kPa | 988.6 kg/m3
340.3 kPa | 988.7 kg/m3
341 kPa | 988.6 kg/m3
344.3 kPa | 988.5 kg/m3
344.5 kPa | 988.7 kg/m3
344.7 kPa | 988.6 kg/m3
345.2 kPa | 988.6 kg/m3
345.5 kPa | 988.6 kg/m3
346.2 kPa | 988.5 kg/m3
346.6 kPa | 988.7 kg/m3
346.9 kPa | 988.6 kg/m3
347.3 kPa | 988.5 kg/m3
347.6 kPa | 988.6 kg/m3
348.2 kPa | 988.7 kg/m3
348.7 kPa | 988.6 kg/m3
349.2 kPa | 988.5 kg/m3 and 988.6 kg/m3
349.4 kPa | 988.6 kg/m3
349.9 kPa | 988.5 kg/m3
350.6 kPa | 988.5 kg/m3
350.9 kPa | 988.6 kg/m3
351.5 kPa | 988.7 kg/m3 and 988.6 kg/m3
352 kPa | 988.6 kg/m3
352.8 kPa | 988.6 kg/m3
353.2 kPa | 988.8 kg/m3 and 988.5 kg/m3
353.4 kPa | 988.6 kg/m3
353.5 kPa | 988.6 kg/m3
354.1 kPa | 988.7 kg/m3
354.2 kPa | 988.6 kg/m3
354.6 kPa | 988.6 kg/m3
354.9 kPa | 988.6 kg/m3
358.1 kPa | 988.6 kg/m3
358.4 kPa | 988.7 kg/m3
358.9 kPa | 988.6 kg/m3
359.4 kPa | 988.6 kg/m3
359.8 kPa | 988.6 kg/m3
360.3 kPa | 988.6 kg/m3 and 988.5 kg/m3
364.5 kPa | 988.6 kg/m3
365 kPa | 988.7 kg/m3
365.2 kPa | 988.5 kg/m3
365.9 kPa | 988.7 kg/m3
366.2 kPa | 988.7 kg/m3
366.6 kPa | 988.7 kg/m3
367.3 kPa | 988.8 kg/m3
367.6 kPa | 988.6 kg/m3
368 kPa | 988.6 kg/m3
368.3 kPa | 988.6 kg/m3
368.6 kPa | 988.7 kg/m3
369.5 kPa | 988.6 kg/m3
369.9 kPa | 988.6 kg/m3
370 kPa | 988.5 kg/m3
370.2 kPa | 988.6 kg/m3
371.1 kPa | 988.6 kg/m3
371.3 kPa | 988.6 kg/m3
371.6 kPa | 988.7 kg/m3
372.1 kPa | 988.7 kg/m3
372.5 kPa | 988.5 kg/m3
373 kPa | 988.6 kg/m3
373.5 kPa | 988.7 kg/m3
374.2 kPa | 988.6 kg/m3
374.6 kPa | 988.6 kg/m3
374.9 kPa | 988.6 kg/m3
375.4 kPa | 988.7 kg/m3
